{
  "source": "patent US20220267854A1",
  "about": "“EGFR AND ROS1 KINASE IN CANCER” (CELL SIGNALING TECHNOLOGY, INC., priority 2012, published 2022)",
  "key": {"[1]": {"system": "STAT3, AKT, ERK, Shp2 in FIG-ROS1(L) expressing BaF3 cells", "assay": "Western blotting, downstream signaling molecules in FIG-ROS1(L) expressing BaF3 cells", "assay_type": "cell-based", "source_text": "(§1) All antibodies were from Cell Signaling Technology, Inc. (Danvers, Mass.)\n(§2) Since ROS1, ALK, LTK, InsR, and IGFIR belong to the same family of tyrosine kinases, they may share similar structure in the kinase domain."}, "[2]": {"system": "STAT3, AKT, ERK, Shp2 in FIG-ROS1(S) expressing BaF3 cells", "assay": "Western blotting, downstream signaling molecules in FIG-ROS1(S) expressing BaF3 cells", "assay_type": "cell-based", "source_text": "as §1, §2"}, "FIG-ROS1(S)": {"biological_target": "T1, FIG-ROS1(S) (Homo sapiens, UniProt P08922)", "T1 construct": "expressed in transfected cells; host or cells: BaF3 cells (retroviral transduction, selected for IL3-independent growth)", "assay": "Western blotting, phosphorylation of FIG-ROS1(S) in BaF3 cells", "assay_type": "cell-based", "source_text": "as §1, §2"}, "FIG-ROS1(L)": {"biological_target": "FIG-ROS1(L) (Homo sapiens, UniProt P08922)", "assay": "Western blotting, phosphorylation of FIG-ROS1(L) in BaF3 cells", "assay_type": "cell-based", "source_text": "as §1, §2"}, "[3]": {"system": "STAT3, AKT, ERK, Shp2 in BaF3 cells transduced with the FLT-3ITD retrovirus", "assay_type": "cell-based", "details": "FLT-3ITD BaF3", "source_text": "as §1, §2"}, "[4]": {"system": "BaF3 cells transduced with FLT3/ITD", "method": "(§3) BaF3 and Karpas 299 cells were obtained from DSMZ (Deutsche Sammlung von Mikroorganismen und Zellkulturen GmbH, Germany). BaF3 cells, which need interleukin-3 to survive, were maintained at 37° C. in RPMI-1640 medium (Invitrogen) with 10% fetal bovine serum (FBS) (Sigma) and 1.0 ng/ml murine IL-3 (R&D Systems). Karpas 299 cells (a lymphoma cell line) were grown in RPMI-1640 with 10% FBS.\n(§4) BaF3 cells were transduced with retrovirus encoding FIG-ROS1(S), FIG-ROS1(L), or FLT-31TD (the Internal tandem duplication mutation in FLT3 causes AML leukemia), and selected for IL3 independent growth. Karpas 299 cells, which express NPM-ALK, was used as a positive control. Retroviruses were generated as previously described (see PCT Publication No. WO 2010/093928, incorporated by reference).\n(§5) A MTS assay was performed using the CellTiter 96 Aqueous One Solution Reagent (Promega, Catalog No G3582). […] After 72 hours, 20 μl of the CellTiter 96 Aqueous One Solution Reagent was added into each well of a 96 well assay plate (flat bottom), and then 100 μl of cells grown with or without treatment. Media-only wells were used as controls. The 96 well plate was incubated for 1-4 hours at 37° C., and then viable cells were counted by reading the absorbance at 490 nm using a 96 well plate reader."}, "[5]": {"system": "Karpas 299 cells (express NPM-ALK)", "details": "FIG. 6, 0-1000 nM, 72 hours", "method": "as §3, §4, §5"}, "[6]": {"system": "BaF3 cells expressing FIG-ROS1(L)", "assay": "MTS cell growth assay, BaF3 expressing FIG-ROS1(L)", "assay_type": "cell-based", "method": "as §3, §4, §5"}, "Karpas 299 cells": {"system": "Karpas 299 cells", "assay": "Cleaved caspase-3 flow cytometry (apoptosis), Karpas 299", "assay_type": "cell-based", "details": "FIG. 7", "source_text": "(§6) The mechanism of death of the BaF3 and Karpas 299 cells was next assessed by measuring the percentage of cleaved-caspase 3 positive cells by flow cytometry assay using cleaved caspase-3 as a marker for apoptosis."}, "[7]": {"system": "BaF3 cells expressing FIG-ROS1(L)", "assay": "Cleaved caspase-3 flow cytometry (apoptosis), BaF3 FIG-ROS1(L)", "assay_type": "cell-based", "details": "FIG. 7", "source_text": "as §6"}, "[8]": {"system": "BaF3 cells expressing FIG-ROS1(S)", "assay": "Cleaved caspase-3 flow cytometry (apoptosis), BaF3 FIG-ROS1(S)", "assay_type": "cell-based", "details": "FIG. 7", "source_text": "as §6"}, "[9]": {"system": "BaF3 cells expressing myc-tagged neomycin (Neo-Myc)", "assay": "MTS cell growth assay, BaF3 expressing myc-tagged neomycin", "assay_type": "cell-based", "details": "FIGS. 9A/9B; 0-1.0 uM; negative control BaF3 neo-myc", "method": "as §3, §5"}, "[10]": {"system": "BaF3 cells expressing FIG-ROS1(S)", "assay": "MTS cell growth assay, BaF3 expressing FIG-ROS1(S)", "assay_type": "cell-based", "method": "as §3, §4, §5"}, "[11]": {"details": "FIG. 10, 0, 0.1, 0.3, or 1.0 uM for three hours"}, "[12]": {"details": "FIGS. 9A/9B, 0-1.0 uM, same concentration of each"}, "[13]": {"details": "FIG. 8, 0, 10, 50, or 100 nM for three hours"}},
  "data": [
    {"compound": "C[C@@H](Oc1cc(-c2cnn(C3CCNCC3)c2)cnc1N)c1c(Cl)ccc(F)c1Cl", "note": "[crizotinib]", "values": [
      {"measurement": "phosphorylation of STAT3 and ERK", "setting": "[1]; [11]", "value": "inhibited"},
      {"measurement": "phosphorylation of STAT3 and ERK", "setting": "[2]; [11]", "value": "inhibited"},
      {"measurement": "phosphorylation of FIG-ROS1(S)", "setting": "FIG-ROS1(S); [11]", "value": "inhibited"},
      {"measurement": "phosphorylation of FIG-ROS1(L)", "setting": "FIG-ROS1(L); [11]", "value": "inhibited"},
      {"measurement": "phosphorylation of STAT3 and ERK", "setting": "[3]; [11]", "value": "not affected"}
    ]},
    {"compound": "COc1cc(N2CCC(N3CCN(C)CC3)CC2)ccc1Nc1ncc(Cl)c(Nc2ccccc2S(=O)(=O)C(C)C)n1", "note": "[TAE-684]", "values": [
      {"measurement": "cellular growth response", "setting": "[4]; FIG. 6, 0-1000 nM, 72 hours, BaF3 FLT3/ITD", "value": "not susceptible"},
      {"measurement": "cellular growth response, compared with FIG-ROS1 BaF3 and Karpas 299 cells", "setting": "[4]; FIGS. 9A/9B, 0-1.0 uM, negative control BaF3 FLT3-ITD", "value": "less sensitive"},
      {"measurement": "cellular growth response", "setting": "[5]", "value": "stopped growing"},
      {"measurement": "cellular growth response", "setting": "[6]; FIG. 6, 0-1000 nM, 72 hours", "value": "stopped growing"},
      {"measurement": "cellular growth response, TAE-684 compared with crizotinib", "setting": "[6]; [12]", "value": "more sensitive to TAE-684 than to crizotinib"},
      {"measurement": "phosphorylation of STAT3, AKT, and ERK, and Shp2", "setting": "[1]; [13]", "value": "inhibited"},
      {"measurement": "mechanism of death, cleaved-caspase 3 positive cells", "setting": "Karpas 299 cells", "value": "did not die by apoptosis"},
      {"measurement": "phosphorylation of STAT3, AKT, and ERK, and Shp2", "setting": "[2]; [13]", "value": "inhibited"},
      {"measurement": "mechanism of death, cleaved-caspase 3 positive cells", "setting": "[7]", "value": "die by apoptosis"},
      {"measurement": "phosphorylation of FIG-ROS1(S)", "setting": "FIG-ROS1(S); [13]", "value": "inhibited"},
      {"measurement": "mechanism of death, cleaved-caspase 3 positive cells", "setting": "[8]", "value": "die by apoptosis"},
      {"measurement": "cellular growth response, compared with FIG-ROS1 BaF3 and Karpas 299 cells", "setting": "[9]", "value": "less sensitive"},
      {"measurement": "phosphorylation of FIG-ROS1(L)", "setting": "FIG-ROS1(L); [13]", "value": "inhibited"},
      {"measurement": "cellular growth response", "setting": "[10]; FIG. 6, 0-1000 nM, 72 hours", "value": "stopped growing"},
      {"measurement": "cellular growth response, TAE-684 compared with crizotinib", "setting": "[10]; [12]", "value": "more sensitive to TAE-684 than to crizotinib"},
      {"measurement": "phosphorylation of STAT3, AKT, and ERK, and Shp2", "setting": "[3]; [13]", "value": "not affected"}
    ]}
  ]
}
